Laboratory results: paper PMC5485989, “Role of Free Radicals and Biotransformation in Trichloronitrobenzene-Induced Nephrotoxicity In Vitro” (International Journal of Molecular Sciences, 2017)

Tests used:
[1] = tested on: isolated renal cortical cells (IRCC); experiment: Time and concentration cytotoxicity study, LDH release in IRCC; type: cell-based, male Fischer 344 rats
Method: To determine the comparative nephrotoxic potential of the four TCNBs in IRCC, a time and concentration response study was performed starting at 15 min and 0.5 or 1.0 mM and adjusting the times tested based on the results (Figure 2).

[2] = tested on: isolated renal cortical cells (IRCC); experiment: 4-HNE adduction in IRCC (Western blot); type: cell-based, male Fischer 344 rats; settings: 0.5 or 1.0 mM, 15 or 30 min
Method: (§1) To determine if oxidative stress plays a role in 3,4,5-TCNB nephrotoxicity, experiments were conducted to determine the temporal aspects of free radical damage as evidenced by protein carbonylation (OxyBlot) and 4-hydroxynonenal (4-HNE) adduction.
(§2) Protein carbonylation was detected using OxyBlot™ Protein Oxidation (Millipore S7150; Temecula, CA, USA). Samples were prepared according to the manufacturer’s protocol and an equal amount of protein (25 µg) and volume were loaded in each lane of a 12.5% polyacrylamide gel and transferred to a nitrocellulose membrane (Whatman; 10-439-196; Dassel, Germany). The transfer was confirmed using a Memcode reversible protein stain kit (Pierce Biotechnology, Fisher Scientific) and the protein was used to normalize each lane. Membranes were incubated overnight at 4 °C with primary antibody (1:150) for OxyBlot. Goat anti-rabbit horse radish peroxidase (HRP, 1:300) was the secondary antibody. Protein with 4-hydroxynonenal (4-HNE) reduced Micahel adducts were prepared as described previously with the exception that 45 µg of protein was used for the gel. The membranes were developed using Amersham^TM ECLTM Western Blotting Reagents (GE Healthcare; Buckinghamshire, UK) and the results were viewed and analyzed using a Bio-Rad Chemidoc system with BioRad Chemidoc densitometry software (version 4.0.1, Catalog No. 170-9690, BioRad, Hercules, CA, USA).

[3] = tested on: isolated renal cortical cells (IRCC); experiment: Protein carbonylation in IRCC (OxyBlot); type: cell-based, male Fischer 344 rats
Method: as §1, §2

renal cortical slices = settings: 120 min incubations; cited from earlier work

Compound: O=[N+]([O-])c1cc(Cl)c(Cl)c(Cl)c1 [3,4,5-TCNB]
- Cytotoxicity (LDH release), time and concentration response ([1]; 0.5 or 1.0 mM, 15-120 min, significant difference from DMSO control, p < 0.05): induced cytotoxicity at 30 and 60 min (0.5 and 1.0 mM) but not at 15 min
- Concentration at which cytotoxicity was evident ([1]; as early as 30 min): 500 µM
- Order of decreasing nephrotoxic potential ([1]; based on time of onset, lowest concentration required and magnitude of LDH release): most potent nephrotoxicant
- 4-HNE levels [2]: not increased
- Protein carbonylation ([3]; 1.0 mM, 30 min, p = 0.017): slightly decreased
- Protein carbonylation ([3]; 0.5 or 1.0 mM, 15 or 30 min): not increased
- Lowest concentration inducing in vitro nephrotoxicity (increased LDH release and decreased pyruvate-stimulated gluconeogenesis) (renal cortical slices): 0.5 mM
